Source: US20040197705A1, “Cyanide compound, optical filter, and optical recording material” (ASAHI DENKA CO., LTD., priority 2003, published 2004)

Tests used:
Type in all cases: physicochemical
[1] = Evaluation of solubility in methyl ethyl ketone (MEK); details: in methyl ethyl ketone (MEK) at 20° C.; % by weight; tested from 0.1 to 0.3% by 0.05%
Description: The test compound was added to MEK at 20° C. in an amount corresponding to a concentration varying from 0.1 to 0.3% by weight by 0.05% by weight to see whether it dissolved or not.

[2] = Decomposition temperature in TG-DTA; details: 100 ml/min nitrogen stream; temperature rise 10° C./min
Description: Decomposition Temperature in TG-DTA (100 ml/min nitrogen stream; temperature rise: 10° C./min): 281° C.

[3] = Evaluation of light resistance (absorption retention halving time); details: film spin coated on polycarbonate plate; light of 55000 lux; exposure time for absorption retention to decrease to 50%
Description: (§1) The test compound shown in Table 2 below was dissolved in a 1:1 (by volume) mixed solvent of MEK and 2,2,3,3-tetrafluoropropan-1-ol to prepare a 1 wt % solution. The solution was applied to a 20 mm×20 mm polycarbonate plate by spin coating at 2000 rpm for 60 seconds to prepare a specimen. The UV absorption spectrum of the specimen was determined. The specimen was then irradiated with light of 55000 lux, and the exposure time required for the absorption retention (as defined in Evaluation Example 2) to decrease to 50% was measured.

[4] = Absorption spectrum of optical filters containing the cyanine compound (λmax, half bandwidth); details: Example 3: PET-protected glass plate with dye-containing acrylic binder layer
Description: A binder composition having the above formulation was applied to a 188 μm thick PET film having been surface treated for adhesion improvement with a bar coater #9 and dried at 80° C. for 30 seconds. The PET film was hot bonded to a 0.9 mm thick alkali glass plate to prepare a PET-protected glass plate having a light absorbing dye-containing binder layer between the glass substrate and the PET film.

[5] = UV transmission and reflection spectra of spin-coated specimens (optical recording material); details: for Reflected Light Intensity at 650 nm: expressed relatively to that at λmax; for Reflected Light Intensity at 650 nm / Reflected Light λmax: incidence angle 5°; for Reflected Light λmax: specimen as in Evaluation Example 3; for Transmitted Light λmax: specimen spin coated on polycarbonate plate as in Evaluation Example 3
Description: as §1
Specimens were prepared in the same manner as in Evaluation Example 3. The UV transmission spectrum and the UV reflection spectrum (incidence angle: 5°) of the specimens were measured. In Table 4, the reflected light intensity at 650 nm is expressed relatively to that at λmax.

Structure (SMILES)	Solubility: insoluble at [1]	Solubility: soluble at [1]	Decomposition Temperature in TG-DTA [2] [°C]	Absorption Retention Halving Time [3] [h]	Half Bandwidth [4] [nm]	λmax [4] [nm]	Transmitted Light λmax [5] [nm]	Reflected Light Intensity at 650 nm [5] [%]	Reflected Light λmax [5] [nm]
Cn1cc(C2=C([O-])/C(=C/C3=[N+](C)c4ccc5ccccc5c4C34CCCCC4)C2=O)c2ccccc21 [Compound No. 4]	< 0.2%	≥ 0.15%	259						
CC(C)CC[N+]1=C(/C=C2\C(=O)C(c3cn(C)c4ccccc34)=C2[O-])C(C)(C)c2ccccc21 [Compound No. 5]		soluble at 0.3%	271	38	29	587	611	95.9	656
CCCCn1c(C)c(C2=C([O-])/C(=C3/C(C)=[N+](CCCC)c4ccccc43)C2=O)c2ccccc21 [Comp. Compound 2, reference compound]	insoluble at 0.1%								
CC(C)CCn1cc(C2=C([O-])/C(=C/C3=[N+](C)c4ccccc4C3(C)C)C2=O)c2ccccc21 [Compound No. 3]				26			608	100	651
CC1=[N+](C)c2ccccc2/C1=C1/C(=O)C(c2c(C)n(C)c3ccccc23)=C1[O-] [Comp. Compound 1, reference compound]	insoluble at 0.1%								
Cc1c(C2=C([O-])/C(=C/C3=[N+](C)c4ccccc4C3(C)C)C2=O)c2ccccc2n1C [Compound No. 14]		soluble at 0.3%	287		30	602			

Further lines, with some results ahead:

Solubility: insoluble at [1]	Solubility: soluble at [1]	Decomposition Temperature in TG-DTA [2] [°C]	Absorption Retention Halving Time [3] [h]	Half Bandwidth [4] [nm]	λmax [4] [nm]	Transmitted Light λmax [5] [nm]	Structure (SMILES)	Reflected Light Intensity at 650 nm [5] [%]	Reflected Light λmax [5] [nm]
		295		33	590		Cc1[nH]c2ccc(F)cc2c1C1=C([O-])/C(=C/C2=[N+](C)c3ccccc3C2(C)C)C1=O [Compound No. 22]		
				36	597		Cc1c(C2=C([O-])/C(=C/C3=[N+](C)c4ccccc4C3(C)C)C2=O)c2cc([N+](=O)[O-])ccc2n1CCC(C)C [Compound No. 23]		
	soluble at 0.3%	273		34	606		Cn1c(-c2ccccc2)c(C2=C([O-])/C(=C/C3=[N+](C)c4ccccc4C3(C)C)C2=O)c2ccccc21 [Compound No. 26]		
